Measured values reported in paper PMC10877733, “Discovery and Characterization of VU0542270, the First Selective Inhibitor of Vascular Kir6.1/SUR2B KATP Channels” (Molecular Pharmacology, 2024).
Entries after “also recorded” stand apart in the source; their conditions may differ.

What was measured:
Kir1.1 = target: T1, Kir1.1 (Homo sapiens, UniProt P48048); assay: Thallium flux selectivity assay Kir1.1; type: cell-based
T1 construct: expressed in transfected cells
T1 sequence (P48048 1-391): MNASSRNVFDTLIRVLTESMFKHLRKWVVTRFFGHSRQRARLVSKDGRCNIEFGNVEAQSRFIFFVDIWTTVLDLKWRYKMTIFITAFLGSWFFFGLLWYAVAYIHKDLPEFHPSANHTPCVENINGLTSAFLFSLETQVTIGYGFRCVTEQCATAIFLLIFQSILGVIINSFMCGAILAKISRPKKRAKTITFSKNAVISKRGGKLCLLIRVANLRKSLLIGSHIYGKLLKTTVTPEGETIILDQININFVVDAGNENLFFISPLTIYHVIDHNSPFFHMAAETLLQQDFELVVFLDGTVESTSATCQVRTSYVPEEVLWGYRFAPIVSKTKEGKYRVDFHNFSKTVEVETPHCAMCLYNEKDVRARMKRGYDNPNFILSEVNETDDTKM
Description: (§1) Quantitative thallium flux assays of Kir6.1/SUR2B activity were performed essentially as described previously for Kir6.2/SUR1 ([Raphemot et al., 2014]; [Kharade et al., 2019]). Stable T-Rex-HEK293-Kir6.1/SUR2B cells or transiently transfected HEK293T cells were plated in polyamine-coated, clear-bottomed, black-walled 384-well plates and were cultured (37°C/5% CO2) overnight in Dulbecco’s modified Eagle’s medium (Gibco, Carlsbad, CA, 11995-065) containing 10% FBS (2 mM Penicillin-Streptomycin). The following day, cells were washed with assay buffer (i.e., Hanks’ balanced salt solution/20 mM HEPES) and loaded for 1 hour with thallium sensor dye Brilliant Thallium (Ion Bioscience, San Marcos, TX) at room temperature. Dye-loaded cells were washed with assay buffer and transferred to a Panoptic Kinetic Imaging Plate Reader (Wavefront Bioscience, Franklin, TN). Control and test compound treatments were for 4 minutes prior to adding 0.5 mM chloride-free thallium stimulus buffer (Ion Bioscience) to initiate thallium flux. […] Selectivity assays against other Kir channels were performed essentially as described previously ([Kharade et al., 2018]; [McClenahan et al., 2022]).

Kir2.3 = target: T2, Kir2.3 (Homo sapiens, UniProt P48050); assay: Thallium flux selectivity assay Kir2.3; type: cell-based
T2 construct: expressed in transfected cells
T2 sequence (P48050 1-445): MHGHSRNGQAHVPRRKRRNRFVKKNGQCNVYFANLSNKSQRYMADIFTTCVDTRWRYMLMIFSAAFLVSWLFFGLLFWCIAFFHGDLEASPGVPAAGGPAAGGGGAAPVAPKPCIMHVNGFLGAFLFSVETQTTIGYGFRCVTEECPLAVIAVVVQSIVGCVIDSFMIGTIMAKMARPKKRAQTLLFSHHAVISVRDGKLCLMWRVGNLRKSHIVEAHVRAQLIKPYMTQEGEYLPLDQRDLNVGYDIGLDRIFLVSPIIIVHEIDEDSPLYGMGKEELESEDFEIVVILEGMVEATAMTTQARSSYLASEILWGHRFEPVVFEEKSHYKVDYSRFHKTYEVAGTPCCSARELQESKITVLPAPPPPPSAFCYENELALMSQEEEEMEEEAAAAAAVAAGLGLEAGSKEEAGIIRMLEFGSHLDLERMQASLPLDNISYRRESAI
Description: as §1

[1] = system: isolated mouse ductus arteriosus vessels; assay: Pressure myography of isolated ductus arteriosus vessels; details: term gestation mouse DA
Description: CD-1 mice were maintained at Vanderbilt University Medical Center in accordance with protocols approved by the Institutional Animal Care and Use Committee. Timed matings were performed to produce offspring at specific stages of development. The presence of a vaginal plug was designated as embryonic day 1.
Term-gestation (embryonic day 19) fetal mouse DAs were isolated and mounted on glass pipet tips in microvessel perfusion chambers as previously reported ([Hooper et al., 2016]). Deoxygenated Krebs buffer was warmed to 37°C and circulated throughout the chamber. Vessels were pressurized in a stepwise manner to physiologic neonatal mouse mean arterial pressure (20 mmHg) and then challenged with 50 mM KCl to test reactivity. […] For dose-response studies, vessels were first dilated by circulating Krebs buffer bubbled with 95% nitrogen, 5% CO2 to mimic the hypoxic conditions of the womb. […] Following each dose, lumen diameters were allowed to plateau (approximately 20 minutes) before the next dose was added. Continuous lumen diameter measurements were recorded using a digital image capture system (IonOptix). An N of >6 vessels from at least three different litters was used for each experimental condition. Changes in lumen diameter are represented as the percent change in diameter compared with the baseline lumen diameter of vessels prior to drug exposure. […] Values represent mean ± S.D.

[2] = Intrinsic clearance in liver microsomes, rat; type: in vitro ADME
Description: (§2) The in vitro intrinsic clearance (CLint) of VU0542270 was investigated in commercially obtained hepatic microsomes from rat, mouse, and human donors using the substrate depletion (i.e., loss-of-parent versus time, or t1/2 method) approach with analyte detection via LC-MS/MS. For each species, mean per cent parent remaining values at each time point were calculated from replicates raw data (analyte:IS peak area ratios) and used to determine in vitro t1/2 and CLint.
(§3) Experiments were carried out using a robot-assisted liquid handling system (TECAN model Evo 200). VU0542270 was incubated (1 µM final concentration) in buffer (100 mM potassium phosphate, pH 7.4, with 3 mM MgCl2) containing hepatic microsomes (0.5 mg/mL final concentration) from multiple species, discretely, at 37°C under constant orbital shaking. After 5 minutes (preincubation), reactions were initiated by the addition of NADPH (1 mM final concentration). At selected time intervals (0, 3, 7, 15, 25, and 45 minutes) post addition of NADPH, aliquots (50 µL) were taken and placed into a 96-shallow-well plate containing ice-cold acetonitrile (150 µL) with carbamazepine (IS, 50 nM). The plates were then centrifuged (3000 rcf at 4°C) for 10 minutes. […]
(§4) Predicted hepatic clearance (CLhep) was calculated using the following equation: [drawing 4] […]

[3] = Intrinsic clearance in liver microsomes, human; type: in vitro ADME
Description: as §2, §3, §4

[4] = corrected to plasma unbound fraction

- IC50 (Kir1.1): > 30 µM
- IC50 (Kir2.3): > 30 µM
- Predicted CLhep,u (rat) [2, 4]: 6.0 mL/min per kg
- Predicted CLhep (rat) ([2]; from microsomal CLint): 63 mL/min per kg
- Predicted CLhep,u (human) [3, 4]: 1.3 mL/min per kg
- Predicted CLhep (human) ([3]; from microsomal CLint): 19 mL/min per kg
Compound: Cc1nc(-c2cccs2)sc1CNC(=O)Nc1cccs1 [VU0542270]
- ductus arteriosus vessel constriction ([1]; increasing concentrations, compound alone): induced ductus arteriosus constriction in a dose-dependent manner; also recorded: constricted in a concentration-dependent manner
- ductus arteriosus vessel constriction in the presence of pinacidil ([1]; with 10 µM pinacidil): substantially blunted vasoconstrictive effects
